From patent US20110246078A1, “MITOCHONDRIA KATP ION CHANNEL AS A DRUG TARGET FOR PREVENTING LIVER DISEASES AND METHODS TO SCREEN MITOCHONDRIA KATP MODULATORS” (priority 2010, published 2011)
“Also recorded” adds a separate entry of the source.

What was measured:
[1] = tested on: pinacidil induced DMR signal in HepG2C3A cells; assay: Label-free RWG biosensor DMR assay, modulation of the pinacidil induced DMR signal; type: cell-based, human; details: pre-incubation with compound, pinacidil 40 μM
Description: Transfection of siRNAs was performed using N-TER Nanoparticle siRNA Transfection System (Cat#N2913) from Sigma-Aldrich Inc. following the manufacturer's instructions. Briefly, 5000 cells were plated in each well of Epic 384-well plates. Cells were transfected with 50 nM siRNA the next day and incubated in siRNA containing medium for 24 hrs before replaced with fresh cell culture medium. Epic cell assay was performed 48 hours after transfection.
(§1) Epic® wavelength interrogation system (Corning Inc., Corning, N.Y.) was used for whole cell sensing. This system consists of a temperature-control unit, an optical detection unit, and an on-board liquid handling unit with robotics. The detection unit is centered on integrated fiber optics, and enables kinetic measures of cellular responses with a time interval of ˜15sec. The compound solutions were introduced by using the on-board liquid handling unit (i.e., pippetting).
The RWG biosensor is capable of detecting minute changes in local index of refraction near the sensor surface. Since the local index of refraction within a cell is a function of density and its distribution of biomass (e.g., proteins, molecular complexes), the biosensor exploits its evanescent wave to non-invasively detect ligand-induced dynamic mass redistribution in native cells. The evanescent wave extends into the cells and exponentially decays over distance, leading to a characteristic sensing volume of ˜150 nm, implying that any optical response mediated through the receptor activation only represents an average over the portion of the cell that the evanescent wave is sampling. The aggregation of many cellular events downstream the receptor activation determines the kinetics and amplitudes of a ligand-induced DMR.
For biosensor cellular assays, compound solutions were made by diluting the stored concentrated solutions with the HBSS (1× Hanks balanced salt solution, plus 20 mM Hepes, pH 7.1), and transferred into a 384well polypropylene compound storage plate to prepare a compound source plate. Two compound source plates were made separately when a two-step assay was performed. In parallel, the cells were washed twice with the HBSS and maintained in 30 μl of the HBSS to prepare a cell assay plate. Both the cell assay plate and the compound source plate(s) were then incubated in the hotel of the reader system. After incubation the baseline wavelengths of all biosensors in the cell assay microplate were recorded and normalized to zero. Afterwards, a 2 to 10 min continuous recording was carried out to establish a baseline, and to ensure that the cells reached a steady state. Cellular responses were then triggered by transferring 10 μl of the compound solutions into the cell assay plate using the on-board liquid handler.
All studies were carried out under controlled temperature (28° C.). At least two independent sets of experiments, each with at least three replicates, were performed.

[2] = tested on: mito-KATP channels in HepG2C3A cells; assay: Label-free RWG biosensor (Epic) DMR cellular assay, agonism mode; type: cell-based, human; details: 28° C.
Excerpt: as §1
The RWG biosensor is capable of detecting minute changes in local index of refraction near the sensor surface. Since the local index of refraction within a cell is a function of density and its distribution of biomass (e.g., proteins, molecular complexes), the biosensor exploits its evanescent wave to non-invasively detect ligand-induced dynamic mass redistribution in native cells. […]
For biosensor cellular assays, compound solutions were made by diluting the stored concentrated solutions with the HBSS (1× Hanks balanced salt solution, plus 20 mM Hepes, pH 7.1), and transferred into a 384well polypropylene compound storage plate to prepare a compound source plate. […] Both the cell assay plate and the compound source plate(s) were then incubated in the hotel of the reader system. After incubation the baseline wavelengths of all biosensors in the cell assay microplate were recorded and normalized to zero. […]

For `N#C/C(=C/c1ccc(O)c(O)c1)C(=O)NCc1ccccc1` [AG490], which “effect on the pinacidil induced DMR signal” value (“effect” below) [1] is on record?
The value was “dose-dependently reduced”.

Which “effect” value [1] does the source give for `C1CCC(N=C(NC23CC4CC(CC(C4)C2)C3)N2CCOCC2)CC1.Cl` [U-37883A] here?
Its value is “no effect”.

`C[C@@H](N)[C@H]1CC[C@H](C(=O)Nc2ccncc2)CC1` [Y-27632] was tested. Which “effect” value [1] did it give?
The value was “reduced the pinacidil induced DMR signal dose-dependently”.

With `C=C1[C@@H](C)[C@H]2[C@H](Cc3ccccc3)NC(=O)[C@]23OC(=O)/C=C/[C@H](O)CCC[C@@H](C)C/C=C/[C@H]3[C@@H]1O` [cytochalasin B] as the molecule, how does the “effect” value [1] read?
The value was “dose-dependently reduce”.

How did the “effect” value [1] turn out when `C/C1=C/C(=O)O[C@@H]2C[C@@H](CC[C@H](C)/C=C\C=C\CC1)O[C@@](O)([C@@H]1CSC(=O)N1)C2` [latrunculin A] was run?
Its value is “dose-dependently reduce”.

`CC(N/C(=N\C#N)Nc1ccncc1)C(C)(C)C` (centres unmarked) [pinacidil] was tested. Which “pinacidil induced DMR signal (amplitudes and kinetics)” value [2] did it give?
The value was “robust; also recorded: concentration dependent”.

With `CCCCNC(=O)NS(=O)(=O)c1ccc(C)cc1` [tobutamide] as the molecule, how does the “effect” value [1] read?
The value was “dose-dependently inhibited”.

How did the “effect” value [1] turn out when `Cc1ccc(S(=O)(=O)NC(=O)NN2CCCCCC2)cc1` [tolazamide] was run?
Its value is “dose-dependent inhibition; also recorded: dose-dependently inhibited”.
